The target of experiment [1] is T1, PI3Kβ (Homo sapiens, UniProt P42338).
T1 construct: made in house
Kind of experiment: HTRF in vitro profiling assay for PI3K inhibition (beta isoform). Type of experiment: biochemical. The settings on record: 200 pM enzyme, 100 uM ATP, 10 uM PIP2, 150 mM NaCl, corrected pIC50, single run or average of two or more runs; for IC50: read-out: PI3K b pIC50 (converted). From the text: The PI3-Kinase profiling assays were developed to measure the compound-dependent inhibition of the alpha, beta, delta, and gamma isoforms of PI3Kin an in vitro catalytic assay. This assay was developed and optimized from a kit produced by Upstate (Millipore catalog #33-017). Briefly, this procedure utilizes a pre-formed HTRF (Homogeneous Time-Resolved Fluorescence energy transfer) complex between four binding partners: 1) biotinylated PIP3, 2) GST tagged pleckstrin homology (PH) domain, 3) Europium labeled anti-GST monoclonal antibody, and 4) Streptavidin-Allophycocyanin (APC). The native PIP3 produced by PI 3-Kinase activity displaces biotin-PIP3 from the PH domain, resulting in the dissociation of the HTRF complex and a decrease in the fluorescence signal. The format of this assay is the same for all 4 isoforms of PI3K; the differences lie in the concentration of enzyme used to achieve the most robust signal. The alpha and delta assays are run at 400 pM enzyme; the beta assay is at 200 pM enzyme and the gamma assay is run at 1 nM enzyme. In addition, the alpha, beta and delta assays are run with 150 mM NaCl while the gamma assay is run in the absence of NaCl. The ATP concentration is 100 uM in the alpha, beta, and delta assays and 15 uM ATP in the gamma assay. All reactions are run at 10 uM PIP2
Compounds were serially diluted (3-fold in 100% DMSO) across a 384-well polypropylene mother plate from column 1 to column 12 and column 13 to column 24, to yield 11 concentrations for each test compound. Columns 6 and 18 contain only DMSO. Once titrations were made, 0.054 was transferred to a 384-well low-volume assay plate (Greiner 784076). This assay plate contained three pharmacological controls (known PI3K inhibitors) and 3 assay controls: (1) Enzyme without inhibitor; (2) Buffer minus enzyme, and (3) Buffer minus enzyme plus native PIP3. DMSO was stamped into all wells of columns 6 and 18. PIP3 was added at 40 μM in 1× Reaction buffer (1 μL of 200 μM PIP3) to alternating rows of column 18 (wells 18 B, D, F, H, J, L, N, P). The no-enzyme control reactions were run in wells 18 A, C, E, G, I, K, M, O (0.14 of 100% DMSO).
The PI3-Kinase profiling assay was optimized using the HTRF kit provided by Upstate (Millipore). The assay kit contained seven reagents: 1) 4× Reaction Buffer; 2) native PIP2 (substrate); 3) Stop A (EDTA); 4) Stop B (Biotin-PIP3); 5) Detection Mix A (Streptavidin-APC); 6) Detection Mix B (Eu-labeled Anti-GST plus GST-tagged PH-domain); 7) Detection Mix C (KF). In addition, the following items were obtained or purchased: PI3Kinase (prepared by GSK BR&AD), dithiothreitol (Sigma, D-5545), Adenosine-5′-triphosphate (ATP, Teknova cat. #A0220), native PIP3 (1,2-dioctanoyl-sn-glycero-3-[phosphoinositil-3,4,5-triphosphate]tetraammonium salt (Avanti polar lipids, 850186P), DMSO (Sigma, 472301).
PI3Kinase Reaction Buffer was prepared by diluting the stock 1:4 with de-ionized water. Freshly prepared DTT was added at a final concentration of 5 mM on the day of use. Enzyme addition and compound pre-incubation were initiated by the addition of 2.5 μL of PI3K (at twice its final concentration) in 1× reaction buffer to all wells using a Multidrop Combi. Plates were incubated at room temperature for 15 minutes. Reactions were initiated by addition of 2.5 μL of 2× substrate solution (PIP2 and ATP in 1× reaction buffer) using a Multidrop Combi. Plates were incubated at room temperature for one hour. Reactions were quenched by the addition of 2.5 μL of stop solution (Stop A and Stop B pre-mixed at a ratio of 5:1, respectively) to all wells using the Multidrop Combi. […]
In general terms: Time-resolved FRET reads energy transfer from a long-lived donor to a nearby acceptor.

Experiment [2] relates to phosphorylation of AKT (Ser473) in MDA-MB-468 tumor cells. Kind of experiment: Inhibition of phosphorylation of AKT in PTEN deficient tumor cell line MDA-MB-468 (MSD Ser473-AKT). Type of experiment: cell-based. The settings on record: Homo sapiens, 0.5 h; MDA-MB-468 breast cancer cells, 30 minutes compound treatment, Ser473-pAKT normalized to total AKT. How it is done: Compounds were evaluated for their ability to inhibit downstream phosphorylation of AKT in MDA-MB-468 tumor cells. Breast cancer cells were plated, incubated for approximately 16-20 hours and then treated with compound for 30 minutes. Final DMSO concentration on all cells was 0.15%. The cells were washed with Tris buffer and lysed in MesoScale Discovery (MSD) lysis buffer containing protease and phosphatase inhibitors (included in MSD kit). MSD Ser473-AKT duplex plates (Cat #MS6000) were used according to the manufacturer's instructions and plates were read on a SECTOR™ Imager 6000 using MSD Workbench software. For analysis of the Ser473-pAKT concentration response curves, the data was normalized using the corresponding total AKT value (sum of pAKT and AKT signal) and plotted as the percent of the DMSO-treated control values. The data was fit in Graphpad Prism version 4 for Windows (Graphpad Software, San Diego, Calif.).

Experiment [3] relates to MDA-MB-468 cells. The experiment in a line: Cell growth inhibition in PTEN-deficient cell line MDA-MB-468 (anchorage independent, Alamar Blue). To be noted: Homo sapiens, 144 h, MDA-MB-468, anchorage independent conditions, 6 days incubation, read-out: Prolif EC50 (nM) MDA-MB-468. Format: cell-based. How it is done:
PTEN deficient tumor cell lines (MDA-MB-468) were cultured generally according to instructions supplied by cell culture supplier American Type Culture Collection, Manassas, Va., with 10% fetal bovine serum at 5% CO2 and 37° C. Cells were seeded into either a T-75 or a T-175 flask 3-4 days prior to 96-well assay plating such that the flasks were approximately 70-80% confluent of the time of harvest. Cells were harvested using 0.25% trypsin-EDTA (Invitrogen #25200056). Trypan Blue exclusion staining was used to determine cell number.
Viable cells were plated in clear, flat bottom 96-well plates (BD #353075) under anchorage independent conditions at 2,000-10,000 cells per well depending on the cell line. To generate anchorage independent growth conditions, a 5% agar stock solution in water was made and autoclaved to melt and sterilize. From the 5% agar solution, a 0.6% agar/media+10% fetal bovine serum (FBS) solution was made to generate a bottom agar layer in the plates to prevent cell attachment. Seventy five microliters per well of the 0.6% agar-media solution was added to the plates. After solidification, a cell solution of 266,870 to 1, 334,022 cells (depending on the cell line) in 10 ml of 0.3% agar/media+10% FBS was made and 75 μl of the cell/media/agar suspension was added to the plates. After the cell layer solidified, 50 μl of media+10% FBS was added to the top of the cells. A 0.3% Brij 35 (Sigma B4184) solution in media+10% FBS was added to column 12 as a background subtraction control. The cells were incubated overnight at 5% CO2 and 37° C. The next day one plate of cells was processed at the time of compound addition to quantify the starting number of cells (T=0 or T0).
To generate the compound titration plates, 15 μl of a 2 mM or 20 μl of a 20 mM solution of the compound of example 31 was diluted in clear bottom polypropylene 96-well plate (BD #351190) using a 10 point, 3-fold titration or a 20 point 2-fold titration, respectively. Three hundred microliters of media was added to the compound dilutions. Ten microliters per well of the serial dilutions was added to the cells and the plates incubated for 6 days at 5% CO2 and 37° C. The final concentration of DMSO in all wells was 0.15% and the highest final concentration of the compound of example 31 was 3.7 μM or 30.7 μM.
Following the 6-day incubation, 20 μl of Alamar Blue (Invitrogen #DAL1100) was added to the cells, incubated at 5% CO2 and 37° C. for 6 hours and the plates read on a Spectramax (Gemini EM) at 530 nm (excitation) and 590 nm (emission) with the auto cut-off disabled. For analysis of cell growth inhibition dose response curves, the data was plotted as the percent of the DMSO-treated control samples (DMSO samples set to 100%). The cellular response was determined for compounds and control compounds by fitting the concentration response with a 4 parameter curve fit using XLfit software and determining the concentration that inhibits 50% of the Ymax-Ymin window (EC50). The EC50 is the midpoint of active compound effect window (between Ymax plateau and Ymin plateau of compound) and represents the concentration of the compound of example 31 where 50% of its maximal effect is observed. Values from wells containing 0.3% Brij 35 (under anchorage independent conditions) were subtracted from all samples for background correction. The compounds listed in Table 3 were tested generally according to the assays described herein. […]
Background: Alamar Blue is a resazurin reagent that responds to reducing activity.

T1 sequence (P42338 whole entry): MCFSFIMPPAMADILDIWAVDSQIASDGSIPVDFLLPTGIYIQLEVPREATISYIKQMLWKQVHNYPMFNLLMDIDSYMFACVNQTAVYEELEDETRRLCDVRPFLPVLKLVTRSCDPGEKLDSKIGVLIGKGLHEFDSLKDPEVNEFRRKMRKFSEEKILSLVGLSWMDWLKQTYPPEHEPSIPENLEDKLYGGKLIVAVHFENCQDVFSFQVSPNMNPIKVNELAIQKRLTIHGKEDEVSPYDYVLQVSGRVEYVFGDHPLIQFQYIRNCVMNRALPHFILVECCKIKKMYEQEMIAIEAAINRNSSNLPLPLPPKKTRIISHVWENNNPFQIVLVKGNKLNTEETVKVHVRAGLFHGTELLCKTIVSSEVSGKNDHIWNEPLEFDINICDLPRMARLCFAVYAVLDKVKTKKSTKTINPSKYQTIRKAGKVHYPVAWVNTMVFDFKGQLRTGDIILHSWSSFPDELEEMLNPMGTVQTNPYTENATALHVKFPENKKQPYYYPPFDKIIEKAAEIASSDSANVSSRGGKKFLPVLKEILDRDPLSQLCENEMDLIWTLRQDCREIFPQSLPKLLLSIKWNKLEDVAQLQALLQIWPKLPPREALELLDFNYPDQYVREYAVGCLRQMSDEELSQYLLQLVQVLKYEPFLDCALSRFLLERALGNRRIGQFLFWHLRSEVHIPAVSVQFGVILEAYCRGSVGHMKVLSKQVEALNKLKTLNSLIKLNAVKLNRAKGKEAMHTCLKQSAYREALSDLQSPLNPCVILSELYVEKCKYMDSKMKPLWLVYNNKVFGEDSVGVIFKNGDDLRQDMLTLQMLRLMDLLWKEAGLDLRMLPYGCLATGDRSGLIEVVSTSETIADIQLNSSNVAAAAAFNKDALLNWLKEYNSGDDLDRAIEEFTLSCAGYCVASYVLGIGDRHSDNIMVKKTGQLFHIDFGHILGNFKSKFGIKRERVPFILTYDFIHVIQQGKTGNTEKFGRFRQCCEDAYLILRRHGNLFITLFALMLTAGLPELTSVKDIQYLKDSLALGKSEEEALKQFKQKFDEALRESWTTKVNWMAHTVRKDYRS
T1 sequence (P27986 whole entry partner): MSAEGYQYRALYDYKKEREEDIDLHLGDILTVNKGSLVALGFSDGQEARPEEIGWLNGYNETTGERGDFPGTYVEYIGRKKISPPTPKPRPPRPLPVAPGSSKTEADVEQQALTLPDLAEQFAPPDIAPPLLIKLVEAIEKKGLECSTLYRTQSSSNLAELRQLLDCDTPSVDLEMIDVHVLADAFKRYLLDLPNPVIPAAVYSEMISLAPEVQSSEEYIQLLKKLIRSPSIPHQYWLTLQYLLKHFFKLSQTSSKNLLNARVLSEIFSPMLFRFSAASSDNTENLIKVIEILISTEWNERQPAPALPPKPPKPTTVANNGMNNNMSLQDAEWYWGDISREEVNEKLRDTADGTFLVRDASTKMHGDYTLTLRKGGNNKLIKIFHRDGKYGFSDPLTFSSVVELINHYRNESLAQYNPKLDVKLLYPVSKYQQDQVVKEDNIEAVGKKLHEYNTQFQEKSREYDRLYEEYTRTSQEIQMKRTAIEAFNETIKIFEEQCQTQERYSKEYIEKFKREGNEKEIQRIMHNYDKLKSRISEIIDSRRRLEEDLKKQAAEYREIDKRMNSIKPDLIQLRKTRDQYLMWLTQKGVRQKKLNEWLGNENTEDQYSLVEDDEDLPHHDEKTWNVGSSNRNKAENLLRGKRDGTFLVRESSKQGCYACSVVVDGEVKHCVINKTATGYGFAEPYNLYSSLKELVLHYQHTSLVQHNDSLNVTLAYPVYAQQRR

What is called EC50 is the concentration giving half of the maximal effect. On to `Cc1nc2c(C(=O)O)cc(N3CCOCC3)nc2n1Cc1cccc(Cl)c1Cl` [Example 4, 3-(2,3-dichlorobenzyl)-2-methyl-5-morpholino-3H-imidazo[4,5-b]pyridine-7-carboxylic acid], for which the “PI3K b pIC50” value in experiment [1] is given as 8.3. In experiment [2], this compound had an IC50 of 41.4 nM. The EC50 in experiment [3] was 153 nM.
As to `Cc1nc2c(C(=O)O)cc(N3CCOCC3)nc2n1Cc1cccc2ccccc12` [Example 6, 2-methyl-5-morpholino-3-(naphthalen-1-ylmethyl)-3H-imidazo[4,5-b]pyridine-7-carboxylic acid], the IC50 in experiment [1] is 0.00158 µM; in experiment [2], 75.3 nM. The EC50 in experiment [3] came out at 66.5 nM.
Consider `Cc1c(Cn2c(C)nc3c(C(=O)O)cc(N4CCOCC4)nc32)cccc1C(F)(F)F` [Example 3, 2-methyl-3-(2-methyl-3-(trifluoromethyl)benzyl)-5-morpholino-3H-imidazo[4,5-b]pyridine-7-carboxylic acid], for which the “PI3K b pIC50” value in experiment [1] was found to be 8.3. In experiment [2], this compound returned an IC50 of 436 nM. In addition, the EC50 in experiment [3] stood at 41 nM.
As to `Cc1nc2ccc(N3CCOCC3)nc2n1Cc1cccc2ccccc12` [Example 7, 4-(2-methyl-3-(naphthalen-1-ylmethyl)-3H-imidazo[4,5-b]pyridin-5-yl)morpholine], the IC50 in experiment [1] was 0.00631 µM; in experiment [2], 126 nM.
Take `Cc1nc2ccc(N3CCOCC3)nc2n1Cc1cccc(Cl)c1Cl` [Example 8, 4-(3-(2,3-dichlorobenzyl)-2-methyl-3H-imidazo[4,5-b]pyridin-5-yl)morpholine]: the IC50 in experiment [1] is 0.0398 µM; in experiment [2], 406 nM. In experiment [3], the EC50 was 1500 nM.
With `Cc1c(Cn2cnc3c(O)cc(N4CCOCC4)nc32)cccc1C(F)(F)F` [Example 1, 3-(2-methyl-3-(trifluoromethyl)benzyl)-5-morpholino-3H-imidazo[4,5-b]pyridin-7-ol], the IC50 is 0.00158 µM in experiment [1] and 477 nM in experiment [2].
Turning to `Oc1cc(N2CCOCC2)nc2c1ncn2Cc1cccc2ccccc12` [Example 2, 5-morpholino-3-(naphthalen-1-ylmethyl)-3H-imidazo[4,5-b]pyridin-7-ol], the IC50 was 0.00316 µM in experiment [1] and 578 nM in experiment [2].
`Cc1c(Cl)cccc1Cn1c(C)nc2c(C(=O)O)cc(N3CCOCC3)nc21` [Example 5, 3-(3-chloro-2-methylbenzyl)-2-methyl-5-morpholino-3H-imidazo[4,5-b]pyridine-7-carboxylic acid]: in experiment [1], the “PI3K b pIC50” value is recorded as 8.8. The compound further had an IC50 in experiment [2] of 15.9 nM. Besides, the EC50 in experiment [3] was 18.1 nM.

The values are drawn from US8906910B2, “Imidazopyridine derivatives as PI3 kinase” (GlaxoSmithKline LLC, priority 2011, dated 2014).
